This is an account of results in US20110236461A1, “METHODS FOR STIMULATING CHONDROGENESIS UTILIZING A POTASSIUM CHANNEL INHIBITOR” (priority 2008, published 2011).

Test [1] relates to pGL3(4×48) reporter gene (Sox5/6/9 binding sites). Kind of test: PLM transfection assay, pGL3(4×48) luciferase reporter. The conditions noted are these: PLM cultures, relative to control. It counts as cell-based, murine. As to the method:
(§1) Primary limb mesenchymal (PLM) cultures were established from CD-1 murine embryonic limbs (E11.5) as previously described (Hoffman et al., J. Cell 174:101-13 (2006); Weston et al., J. Cell Biol., 158:39-51 (2002)). Limb mesenchyme was dissociated by dispase treatment and a single cell suspension was obtained by filtration through a […] cell strainer (BD Biosciences). PLM cells were pelleted by centrifugation at 200×g and resuspended to produce a stock cell suspension at a concentration of 2.0×10^7 cells/ml. Cells were used for transfection (Example 2) or for establishment of cultures for alcian blue staining.
Stock plasmid DNAs were standardized to a concentration of 1 mg/ml. For co-transfections, a ratio of 3:1 gene of interest to reporter gene was used. Luciferase reporter genes consist of a firefly reporter gene, pGL3(4×48), and a Renilla (Renilla reniformis) luciferase reporter phRL-SV40 to normalize for transfection efficiency. Transfections were carried out using Effectene reagent (Qiagen). The pGL3(4×48) reporter contains four repeats of a Sox5/6/9 binding site. Reporter plasmids containing Sox5/6/9 binding sites (pGL3[4×48]) were previously described (Weston et al., J. Cell Biol., 158:39-51 (2002)).
This dose range is consistent with previous studies on butamben binding and inhibition of potassium channels. […]
Background: Reporter assays use an easily measured gene product as a stand-in for the process of interest.

Test [2] concerns the target T1, Kv4.2 potassium channel encoded by Kcnd2 (Homo sapiens, UniProt Q9NZV8).
T1 sequence (Q9NZV8 1-630): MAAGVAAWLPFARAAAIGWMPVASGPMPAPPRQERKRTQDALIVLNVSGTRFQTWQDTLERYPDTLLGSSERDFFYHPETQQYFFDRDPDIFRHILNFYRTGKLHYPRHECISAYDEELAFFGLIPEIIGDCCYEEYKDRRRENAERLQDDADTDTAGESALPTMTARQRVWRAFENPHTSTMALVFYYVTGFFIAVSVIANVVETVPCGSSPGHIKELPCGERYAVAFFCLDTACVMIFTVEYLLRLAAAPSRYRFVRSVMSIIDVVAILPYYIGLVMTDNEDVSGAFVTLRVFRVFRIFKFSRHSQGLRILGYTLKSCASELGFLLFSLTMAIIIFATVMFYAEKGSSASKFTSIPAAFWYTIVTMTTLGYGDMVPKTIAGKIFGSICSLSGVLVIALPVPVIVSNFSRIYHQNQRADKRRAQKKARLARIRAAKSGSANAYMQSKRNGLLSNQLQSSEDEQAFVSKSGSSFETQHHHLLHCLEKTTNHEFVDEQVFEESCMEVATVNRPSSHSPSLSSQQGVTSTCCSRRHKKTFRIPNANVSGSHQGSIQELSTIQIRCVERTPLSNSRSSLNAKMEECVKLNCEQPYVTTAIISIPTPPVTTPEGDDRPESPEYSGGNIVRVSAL
The conditions noted are these: Winkelman et al. 2005; cited from earlier work.

In test [3] the test system is voltage-gated potassium channel Kv1 and 4 classes. The conditions noted are these: Winkelman et al. 2005; Beekwilder et al. 2003; cited from earlier work.
A further test concerns Mmp13. The experiment in a line: Mmp13 mRNA in murine limb bud-derived high-density cultures, TaqMan real-time PCR. It counts as cell-based. The conditions noted are these: BMP4 20 ng/ml, BAB 10 μM, 4310 100 nM; RNA at five and ten days; normalized to 5-day control. As to the method: Murine limb bud-derived high-density cultures were established as previously described (Hoffman 2006). Media was replaced every three days. After 24 hours of culture, compounds were added at the following final concentrations: BMP4 (20 ng/ml), BAB (10 μM), and 4310 (100 nM). After 72 hours of culture, ascorbic acid and beta-glycerol phosphate were added to the culture at final concentrations of 126 μM and 1 mM, respectively. RNA was isolated from cultures at five and ten days. Gene expression was assessed using real-time PCR with TaqMan® probe and primer sets (Applied Biosystems, Taqman Gene Expression Assay Mm00439491_m1). All gene expression levels were normalized to the 5-day control (set at 100%). Results are shown in FIG. 7 and are the average of two replicates.
In general terms: Real-time PCR tracks product formation cycle by cycle.

The test system of the next test is Sox9. The experiment in a line: Sox9 expression in PLM cultures by RT-qPCR. It counts as cell-based, murine. The conditions noted are these: PLM cultures treated for 1 or 3 days, relative to control. As to the method:
as §1
To follow the expression of transcripts for Kcnd2 and Sox9, quantitative real-time PCR was performed using the 7500 Fast Sequence Detection System (Applied Biosystems). The primer/probe set used for detection of Sox9 was as described in Weston et al., J. Cell Biol., 158:39-51 (2002). For detection of all other transcripts, TaqMan Gene Expression Assays (Applied Biosystems) were used. Total RNA was isolated from primary cultures, and an aliquot was reverse transcribed to cDNA using a High Capacity cDNA Archive kit (Applied Biosystems). Quantification was performed using ˜10 ng of total RNA and the expression of all genes relative to endogenous rRNA was determined using TaqMan Ribosomal Control Reagents (Applied Biosystems). […]

Test [4] deals with primary limb mesenchymal (PLM) cultures. Kind of test: alcian blue staining of PLM cultures. It counts as cell-based, murine. The conditions noted are these: PLM transfection assays and alcian blue staining experiments. As to the method:
Primary limb mesenchymal (PLM) cultures were established from CD-1 murine embryonic limbs (E11.5) as previously described (Hoffman et al., J. Cell 174:101-13 (2006); Weston et al., J. Cell Biol., 158:39-51 (2002)). Limb mesenchyme was dissociated by dispase treatment and a single cell suspension was obtained by filtration through a […] cell strainer (BD Biosciences). PLM cells were pelleted by centrifugation at 200×g and resuspended to produce a stock cell suspension at a concentration of 2.0×10^7 cells/ml. Cells were used for transfection (Example 2) or for establishment of cultures for alcian blue staining. For the latter, 10 μl of PLM cells were spotted into the well of a 24-well plate, and allowed to adhere for 1 h. Culture medium consisting of 60% Ham's F12 nutrient mix/40% Dulbecco's modified Eagle's medium (DMEM) and supplemented with 10% FBS (Qualified, Invitrogen) was added to each well; this time was considered T=0. Cultures were maintained for a period of up to 4 days, and culture media was replaced on alternate days to minimize handling. For alcian blue staining, culture medium was aspirated and cells were washed once with PBS. Cultures were fixed in 95% ethanol at −20° C. overnight. Fixative was removed by aspiration and cells were sequentially washed once with PBS, followed by 0.2M HCl. Cells were stained overnight with a 1% alcian blue solution prepared in 0.2M HCl.

The next test has as its system pGL3(4×48) reporter. Kind of test: pGL3(4×48) reporter in high-density murine limb bud-derived cultures, compounds alone or in combination. It counts as cell-based. The conditions noted are these: BMP4 20 ng/ml, BAB 10 μM, 4310 100 nM; 24 h and 72 h after treatment; normalized to untreated controls. As to the method: High-density murine limb bud-derived cultures were established as previously described (Hoffman 2006). Media was replaced every two days. Cells were transfected on day 0 with pGL3(4×48) (reporter) and phRL-SV40 (to normalize transfection efficiency) plasmids using Effectene transfection reagent (Qiagen). Twenty-four hours after transfection, cells were treated with the following final concentrations of compounds, either individually or in combination: BMP4 (20 ng/ml), butamben (BAB) (10 μM), and the pan-RAR antagonist 4310 (100 nM). Lysates were collected at 24 h and 72 h after treatment. Luciferase activity was measured using the Dual-Luciferase® kit according to the manufacturer's instructions (Promega). Reporter activity was normalized to untreated controls (−) on the same day.

As for `Nc1ccncc1` [4-AP, 4-aminopyridine], the “activity of chondrogenic responsive reporter gene pGL3(4×48)” value in test [1] is listed as “significantly induces”.
As for `CCCCOC(=O)c1ccc(N)cc1` [butamben, butyl 4-aminobenzoate], the “activity of chondrogenic responsive reporter gene pGL3(4×48)” value in test [1] is “significantly increase”. Besides, the “block of Kv4.2 potassium channel” value in test [2] is listed as “blocked”. Further, the “block of voltage-gated potassium channel Kv1 and 4 classes” value in test [3] is reported as “blocks”. Besides, the Mmp13 expression entry with Mmp13 is on record as “markedly decreased”. Also, in the test on Sox9, the Sox9 expression result is listed as “increased Sox9 expression”. Further, the chondrogenic activity result in test [4] is “low micromolar concentrations of butamben stimulate chondrogenic activity”. Further, the “pGL3(4×48) reporter gene activity” value with pGL3(4×48) reporter is listed as “increased”.

B1: BMP4: bone morphogenetic protein-4 (protein, UniProt P12644 293-408, looked up)
Bone morphogenetic protein 4: SPKHHSQRARKKNKNCRRHSLYVDFSDVGWNDWIVAPPGYQAFYCHGDCPFPLADHLNSTNHAIVQTLVNSVNSSIPKACCVPTELSAISMLYLDEYDKVVLKNYQEMVVEGCGCR
In the case of B1, the Mmp13 expression result in the test with Mmp13 was “increased”. For the same molecule, in the test on pGL3(4×48) reporter, the “pGL3(4×48) reporter gene activity” value is recorded as “increased”.
